{"source": "patent US20200165194A1", "about": "“ADDITIVE COMPOSITION FOR CULTURE MEDIUM, ADDITIVE COMPOUND FOR CULTURE MEDIUM, AND METHOD FOR CULTURE OF CELLS OR TISSUE USING SAME” (NISSAN CHEMICAL CORPORATION, priority 2017, published 2020)", "assay_type_in_all_cases": "cell-based", "key": {"[1]": {"tested_on": "human malignant melanoma-derived cell line A375", "test": "Various human cancer cells-2, 3D culture, ATP assay (Experimental Example 6)", "details": "4 days; for viability at 5 µM / viability at 10 µM: Homo sapiens, A-375, 96 h, read-out: number of viable cells (RLU), relative value to control (100%)"}, "[2]": {"tested_on": "human prostate cancer-derived cell DU145", "test": "Various human cancer cells-2, 3D culture, ATP assay (Experimental Example 6)", "details": "4 days"}, "[3]": {"tested_on": "human epithelial-like cell cancer-derived cell line A431", "test": "Various human cancer cells-2, 3D culture, ATP assay (Experimental Example 6)", "details": "4 days; for viability at 5 µM: Homo sapiens, A-431, 96 h, read-out: number of viable cells (RLU), relative value to control (100%)"}, "[4]": {"tested_on": "human uterus cervix cancer-derived cell line HeLa", "test": "Various human cancer cells-2, 3D culture, ATP assay (Experimental Example 6)", "details": "4 days"}, "[5]": {"tested_on": "human stomach adenocarcinoma-derived cell line AGS", "test": "Various human cancer cells-2, 3D culture, ATP assay (Experimental Example 6)", "details": "4 days; for viability at 5 µM / viability at 10 µM: Homo sapiens, 96 h, read-out: number of viable cells (RLU), relative value to control (100%)"}, "[6]": {"tested_on": "a plurality of cancer cell lines", "test": "Various human cancer cells-1, summary over the cell lines (Experimental Example 5)", "details": "cancer cell lines under three-dimensional conditions", "excerpt": "Various human-derived cancer cells were precultured (single layer culture) in respective media shown below. […]"}, "[7]": {"details": "low attachment flat bottom plate (gellan gum medium), 5 μM"}, "[8]": {"details": "low attachment flat bottom plate (gellan gum medium), 10 μM"}, "[9]": {"details": "low attachment U-bottom plate, 5 μM"}, "[10]": {"details": "low attachment U-bottom plate, 10 μM"}}, "note": "Where two headings read alike, the source gives them in different places.", "data": [{"smiles": "CC/C(=N\\NC(=O)C(C)Nc1ccccc1)c1ccc(O)c(C)c1O", "note": "(stereo not shown) [k-1:B-1]", "values": [{"measurement": "viability at 5 µM", "setting": "[1]; [7]", "result": "> 120", "unit": "%"}, {"measurement": "viability at 10 µM", "setting": "[1]; [8]", "result": "> 120", "unit": "%"}, {"measurement": "number of viable cells (RLU), relative value to control (100%)", "setting": "[1]; [9]", "result": "⊙"}, {"measurement": "number of viable cells (RLU), relative value to control (100%)", "setting": "[1]; [10]", "result": "⊙"}, {"measurement": "number of viable cells (RLU), relative value to control (100%)", "setting": "[2]; [9]", "result": "⊙"}, {"measurement": "number of viable cells (RLU), relative value to control (100%)", "setting": "[2]; [10]", "result": "⊙"}, {"measurement": "number of viable cells (RLU), relative value to control (100%)", "setting": "[2]; [7]", "result": "⊙"}, {"measurement": "number of viable cells (RLU), relative value to control (100%)", "setting": "[2]; [8]", "result": "⊙"}, {"measurement": "number of viable cells (RLU), relative value to control (100%)", "setting": "[3]; [9]", "result": "⊙"}, {"measurement": "number of viable cells (RLU), relative value to control (100%)", "setting": "[3]; [10]", "result": "⊙"}, {"measurement": "number of viable cells (RLU), relative value to control (100%)", "setting": "[3]; [7]", "result": "⊙"}, {"measurement": "number of viable cells (RLU), relative value to control (100%)", "setting": "[3]; [8]", "result": "⊙"}, {"measurement": "number of viable cells (RLU), relative value to control (100%)", "setting": "[4]; [9]", "result": "⊙"}, {"measurement": "number of viable cells (RLU), relative value to control (100%)", "setting": "[4]; [10]", "result": "⊙"}, {"measurement": "number of viable cells (RLU), relative value to control (100%)", "setting": "[4]; [7]", "result": "⊙"}, {"measurement": "number of viable cells (RLU), relative value to control (100%)", "setting": "[4]; [8]", "result": "⊙"}, {"measurement": "viability at 5 µM", "setting": "[5]; [7]", "result": "> 120", "unit": "%"}, {"measurement": "number of viable cells (RLU), relative value to control (100%)", "setting": "[5]; [9]", "result": "⊙"}, {"measurement": "number of viable cells (RLU), relative value to control (100%)", "setting": "[5]; [10]", "result": "⊙"}, {"measurement": "number of viable cells (RLU), relative value to control (100%)", "setting": "[5]; [8]", "result": "⊙"}]}, {"smiles": "CCC(=NNC(=O)C(CC)Nc1ccccc1)c1ccc(O)c(C)c1O", "note": "(stereo not shown) [k-1:H-7]", "values": [{"measurement": "proliferation activity (in words)", "setting": "[6]", "result": "promoted proliferation activity in a plurality of cancer cell lines"}]}, {"smiles": "CC/C(=N\\NC(=O)Nc1ccccc1)c1ccc(O)c(C)c1O", "note": "[k-1:H-10]", "values": [{"measurement": "proliferation activity (in words)", "setting": "[6]", "result": "promoted proliferation activity in a plurality of cancer cell lines"}]}, {"smiles": "CC/C(=N\\NC(=O)NCc1ccccc1)c1ccc(O)c(C)c1O", "note": "[k-1:I-1]", "values": [{"measurement": "viability at 5 µM", "setting": "[1]; [9]", "result": "120 to 150", "unit": "%"}, {"measurement": "viability at 10 µM", "setting": "[1]; [10]", "result": "120 to 150", "unit": "%"}, {"measurement": "viability at 5 µM", "setting": "[1]; [7]", "result": "< 119", "unit": "%"}, {"measurement": "viability at 10 µM", "setting": "[1]; [8]", "result": "< 119", "unit": "%"}, {"measurement": "viability at 5 µM", "setting": "[2]; Homo sapiens, DU-145, 96 h, low attachment U-bottom plate, 5 μM, read-out: number of viable cells (RLU), relative value to control (100%)", "result": "< 119", "unit": "%"}, {"measurement": "viability at 10 µM", "setting": "[2]; Homo sapiens, DU-145, 96 h, low attachment U-bottom plate, 10 μM, read-out: number of viable cells (RLU), relative value to control (100%)", "result": "120 to 150", "unit": "%"}, {"measurement": "viability at 5 µM", "setting": "[2]; Homo sapiens, DU-145, 96 h, low attachment flat bottom plate (gellan gum medium), 5 μM, read-out: number of viable cells (RLU), relative value to control (100%)", "result": "120 to 150", "unit": "%"}, {"measurement": "number of viable cells (RLU), relative value to control (100%)", "setting": "[2]; [8]", "result": "⊙"}, {"measurement": "viability at 5 µM", "setting": "[3]; [9]", "result": "120 to 150", "unit": "%"}, {"measurement": "viability at 5 µM", "setting": "[3]; [7]", "result": "< 119", "unit": "%"}, {"measurement": "number of viable cells (RLU), relative value to control (100%)", "setting": "[3]; [10]", "result": "⊙"}, {"measurement": "number of viable cells (RLU), relative value to control (100%)", "setting": "[3]; [8]", "result": "⊙"}, {"measurement": "viability at 5 µM", "setting": "[4]; Homo sapiens, 96 h, low attachment U-bottom plate, 5 μM, read-out: number of viable cells (RLU), relative value to control (100%)", "result": "< 119", "unit": "%"}, {"measurement": "viability at 10 µM", "setting": "[4]; Homo sapiens, 96 h, low attachment U-bottom plate, 10 μM, read-out: number of viable cells (RLU), relative value to control (100%)", "result": "< 119", "unit": "%"}, {"measurement": "viability at 5 µM", "setting": "[5]; [9]", "result": "< 119", "unit": "%"}, {"measurement": "viability at 10 µM", "setting": "[5]; [10]", "result": "120 to 150", "unit": "%"}, {"measurement": "viability at 5 µM", "setting": "[5]; [7]", "result": "120 to 150", "unit": "%"}, {"measurement": "viability at 10 µM", "setting": "[5]; [8]", "result": "120 to 150", "unit": "%"}]}]}
